Results reported in ChEMBL document CHEMBL1154508, “Discovery of GSK345931A: An EP(1) receptor antagonist with efficacy in preclinical models of inflammatory pain” (Bioorg Med Chem Lett, 2009).

Columns and labels:
[1] = target: T1, Prostaglandin E2 receptor EP1 subtype (Homo sapiens, UniProt P34995); experiment: Antagonist activity at EP1 receptor assessed as calcium mobilization by FLIPR assay; type: functional
T1 sequence (P34995 whole entry): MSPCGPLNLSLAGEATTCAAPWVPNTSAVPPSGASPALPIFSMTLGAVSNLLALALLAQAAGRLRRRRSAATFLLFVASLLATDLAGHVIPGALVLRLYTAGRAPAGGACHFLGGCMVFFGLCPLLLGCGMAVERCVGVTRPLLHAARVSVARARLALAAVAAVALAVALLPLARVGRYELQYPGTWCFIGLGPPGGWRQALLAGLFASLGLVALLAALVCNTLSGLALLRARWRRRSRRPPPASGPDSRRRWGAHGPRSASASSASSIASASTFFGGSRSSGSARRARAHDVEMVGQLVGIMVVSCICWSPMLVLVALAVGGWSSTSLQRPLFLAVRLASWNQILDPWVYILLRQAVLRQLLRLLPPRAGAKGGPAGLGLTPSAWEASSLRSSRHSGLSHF

[2] = test system: Liver microsomes; experiment: Metabolic stability assessed as intrinsic clearance per gram of rat liver microsomes; type: ADME, Microsome
[3] = test system: Liver microsomes; experiment: Metabolic stability assessed as intrinsic clearance per gram of human liver microsomes; type: ADME, Microsome
[4] = target: Cytochrome P450 2D6 (Homo sapiens, UniProt P10635); experiment: Inhibition of CYP2D6; type: ADME
Cytochrome P450 2D6, sequence (P10635 whole entry): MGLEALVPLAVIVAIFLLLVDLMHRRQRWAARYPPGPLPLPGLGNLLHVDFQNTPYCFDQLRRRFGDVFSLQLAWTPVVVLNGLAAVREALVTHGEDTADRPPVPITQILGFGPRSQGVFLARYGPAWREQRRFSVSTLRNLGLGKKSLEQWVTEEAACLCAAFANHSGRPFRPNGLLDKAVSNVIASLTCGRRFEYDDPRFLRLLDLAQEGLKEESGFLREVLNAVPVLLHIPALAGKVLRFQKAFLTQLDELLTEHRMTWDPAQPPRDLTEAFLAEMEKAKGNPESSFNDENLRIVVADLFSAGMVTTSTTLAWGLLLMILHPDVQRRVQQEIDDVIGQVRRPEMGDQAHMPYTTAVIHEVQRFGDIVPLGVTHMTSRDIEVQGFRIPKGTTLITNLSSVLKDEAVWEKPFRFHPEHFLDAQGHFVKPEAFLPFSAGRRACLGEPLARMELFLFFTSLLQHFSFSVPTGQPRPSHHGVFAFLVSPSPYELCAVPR

[5] = target: Cytochrome P450 3A4 (Homo sapiens, UniProt P08684); experiment: Inhibition of CYP3A4; type: ADME
Cytochrome P450 3A4, sequence (P08684 whole entry): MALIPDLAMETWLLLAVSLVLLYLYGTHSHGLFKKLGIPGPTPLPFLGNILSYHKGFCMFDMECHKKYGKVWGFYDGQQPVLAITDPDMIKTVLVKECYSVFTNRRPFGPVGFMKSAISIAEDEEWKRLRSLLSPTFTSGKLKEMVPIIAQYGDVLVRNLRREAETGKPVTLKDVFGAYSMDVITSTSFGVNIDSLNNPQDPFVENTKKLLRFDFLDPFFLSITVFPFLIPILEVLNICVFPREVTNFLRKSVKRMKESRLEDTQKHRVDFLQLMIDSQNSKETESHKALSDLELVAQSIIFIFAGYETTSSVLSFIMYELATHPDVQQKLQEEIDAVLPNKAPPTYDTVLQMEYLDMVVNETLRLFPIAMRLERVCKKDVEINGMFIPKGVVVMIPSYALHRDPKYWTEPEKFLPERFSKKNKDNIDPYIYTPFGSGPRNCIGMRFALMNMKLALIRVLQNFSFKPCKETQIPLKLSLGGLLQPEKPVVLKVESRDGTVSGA

[6] = Ratio of drug level in rat brain to blood at 0.28 mg/kg/hr, iv for 18 hrs at steady state; type: ADME, organism-based; design: route intravenous
[7] = target: Cytochrome P450 2C19 (Homo sapiens, UniProt P33261); experiment: Inhibition of CYP2C19; type: ADME
Cytochrome P450 2C19, sequence (P33261 whole entry): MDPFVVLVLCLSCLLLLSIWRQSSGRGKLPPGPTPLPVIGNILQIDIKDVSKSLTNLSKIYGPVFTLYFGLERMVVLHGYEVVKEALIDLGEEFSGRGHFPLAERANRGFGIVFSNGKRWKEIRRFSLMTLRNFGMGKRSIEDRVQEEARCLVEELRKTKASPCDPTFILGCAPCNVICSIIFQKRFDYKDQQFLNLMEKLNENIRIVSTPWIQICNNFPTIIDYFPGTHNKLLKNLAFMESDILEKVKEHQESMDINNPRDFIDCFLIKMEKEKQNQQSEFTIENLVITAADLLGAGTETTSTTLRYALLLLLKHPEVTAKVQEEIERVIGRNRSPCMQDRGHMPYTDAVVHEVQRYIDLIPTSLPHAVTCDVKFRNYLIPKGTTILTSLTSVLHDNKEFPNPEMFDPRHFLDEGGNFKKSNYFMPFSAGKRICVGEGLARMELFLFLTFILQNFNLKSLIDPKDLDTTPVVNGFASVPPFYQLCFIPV

[8] = target: T2, Cytochrome P450 1A2 (Homo sapiens, UniProt P05177); experiment: Inhibition of CYP1A2; type: ADME
T2 sequence (P05177 whole entry): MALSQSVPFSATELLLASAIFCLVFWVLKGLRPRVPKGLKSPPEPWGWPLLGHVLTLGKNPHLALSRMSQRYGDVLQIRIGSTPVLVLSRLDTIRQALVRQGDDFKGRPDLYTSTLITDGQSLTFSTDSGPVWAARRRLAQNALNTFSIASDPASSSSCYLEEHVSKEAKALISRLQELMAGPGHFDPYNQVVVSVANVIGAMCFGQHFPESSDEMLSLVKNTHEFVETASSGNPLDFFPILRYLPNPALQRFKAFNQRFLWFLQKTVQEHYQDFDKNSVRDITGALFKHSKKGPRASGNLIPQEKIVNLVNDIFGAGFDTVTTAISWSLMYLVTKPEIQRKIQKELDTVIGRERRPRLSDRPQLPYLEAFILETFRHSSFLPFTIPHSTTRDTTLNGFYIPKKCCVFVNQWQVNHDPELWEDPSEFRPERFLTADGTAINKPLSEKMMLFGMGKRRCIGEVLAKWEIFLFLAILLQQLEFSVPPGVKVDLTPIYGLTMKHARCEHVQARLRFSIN

[9] = target: Cytochrome P450 2C9 (Homo sapiens, UniProt P11712); experiment: Inhibition of CYP2C9; type: ADME
Cytochrome P450 2C9, sequence (P11712 whole entry): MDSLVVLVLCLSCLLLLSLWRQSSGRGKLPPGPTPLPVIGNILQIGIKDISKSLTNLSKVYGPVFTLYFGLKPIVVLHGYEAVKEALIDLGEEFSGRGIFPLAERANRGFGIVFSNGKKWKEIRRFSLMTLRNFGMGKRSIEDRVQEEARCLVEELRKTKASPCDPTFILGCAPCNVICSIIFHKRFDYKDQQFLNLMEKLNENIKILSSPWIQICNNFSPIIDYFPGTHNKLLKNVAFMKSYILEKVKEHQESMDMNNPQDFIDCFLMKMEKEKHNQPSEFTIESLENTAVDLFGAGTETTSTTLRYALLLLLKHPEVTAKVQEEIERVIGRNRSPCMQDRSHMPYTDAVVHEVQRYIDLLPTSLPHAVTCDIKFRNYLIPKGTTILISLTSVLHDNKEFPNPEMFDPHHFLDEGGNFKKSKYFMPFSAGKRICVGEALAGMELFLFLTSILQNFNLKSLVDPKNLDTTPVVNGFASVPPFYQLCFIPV

[10] = target: T1, Prostaglandin E2 receptor EP1 subtype; experiment: Binding affinity to EP1 receptor

Compound	IC50 [10] [nM]	further results
O=C(O)c1cccc(-c2ccccc2-c2cc(Cl)ccc2OCc2ccccc2)c1	–	Ki [1]: 31.6 nM; CL [2]: <= 0.5 ml/min/g; CL [3]: < 0.5 mL/min/g
O=C(O)c1cccc(C2=C(c3cc(Cl)ccc3OCc3ccc(F)cc3F)CCC2)n1	–	IC50 [4]: > 100 µM; IC50 [5]: 89 µM; Kp at 18 h [6]: 0.2; IC50 [7]: 62 µM; IC50 [8]: > 100 µM; IC50 [9]: 25 µM
CCCOc1ccc(Cl)cc1-c1ccccc1-c1cccc(C(=O)O)n1	251	–
O=C(O)c1cccc(-c2cc(Cl)ccc2-c2cc(Cl)ccc2OCc2ccccc2)c1	> 1000	–
O=C(O)c1ccc(-c2ccccc2-c2cc(Cl)ccc2OCc2ccccc2)cc1	794	–
O=C(O)c1cc(-c2ccccc2-c2ccccc2OCc2ccccc2)ccc1Cl	126	–
Cc1cccc(-c2cc(Cl)ccc2OCc2ccccc2)c1-c1cccc(C(=O)O)c1	100	–
O=C(O)c1cccc(-c2ccccc2-c2cc(Cl)ccc2OCC2CCCC2)n1	158	–
O=C(O)c1ccc(F)c(-c2ccccc2-c2ccccc2OCc2ccccc2)c1	79.4	–
O=C(O)c1cccc(-c2ccccc2-c2cc(Cl)ccc2OCc2ccccc2F)n1	39.8	–
O=C(O)c1cccc(-c2ccccc2-c2ccc(Cl)cc2OCc2ccccc2)c1	316	–
Cc1ccc(-c2cccc(C(=O)O)c2)c(-c2cc(Cl)ccc2OCc2ccccc2)c1	> 1000	–
Cc1ccc(-c2cc(Cl)ccc2OCc2ccccc2)c(-c2cccc(C(=O)O)c2)c1	> 1000	–
O=C(O)c1cccc(-c2ccccc2-c2cc(Cl)ccc2OCc2ccc(Br)cc2F)n1	50.1	–
O=C(O)c1cccc(-c2ccccc2-c2cc(Cl)ccc2OCc2ccc(Cl)cc2F)n1	20	–
CCCCOc1ccc(Cl)cc1-c1ccccc1-c1cccc(C(=O)O)n1	100	–
O=C(O)c1cccc(-c2ccccc2-c2cc(Cl)ccc2OCc2ccc(F)cc2Cl)n1	63.1	–
O=C(O)c1cc(F)cc(-c2ccccc2-c2ccccc2OCc2ccccc2)c1	63.1	–
Cc1c(C(=O)O)cccc1-c1ccccc1-c1ccccc1OCc1ccccc1	501	–
O=C(O)c1cccc(-c2ccccc2-c2ccccc2OCc2ccccc2)c1	20	–

The remaining compounds from weak to strong by IC50 [10], led by results:

IC50 [10] [nM]	Compound	further results
20	O=C(O)c1ccccc1-c1ccccc1-c1cc(Cl)ccc1OCc1ccccc1	–
12.6	O=C(O)c1cccc(-c2ccccc2-c2cc(Cl)ccc2OCc2c(F)cc(F)cc2F)n1	–
10	CC(=O)Nc1cc(C(=O)O)cc(-c2ccccc2-c2cc(Cl)ccc2OCc2ccccc2)c1	–
10	CC(C)C(=O)Nc1cc(C(=O)O)cc(-c2ccccc2-c2cc(Cl)ccc2OCc2ccccc2)c1	–
10	O=C(O)c1cccc(-c2ccccc2-c2cc(Cl)ccc2OCc2ccccc2)n1	–
6.31	CCC(=O)Nc1cc(C(=O)O)cc(-c2ccccc2-c2cc(Cl)ccc2OCc2ccccc2)c1	–
5.01	O=C(O)c1cccc(-c2ccccc2-c2cc(Cl)ccc2OCc2ccc(F)cc2)n1	–
3.98	COCC(=O)Nc1cc(C(=O)O)cc(-c2ccccc2-c2cc(Cl)ccc2OCc2ccccc2)c1	–
3.98	O=C(O)c1cccc(-c2ccccc2-c2cc(Cl)ccc2OCc2ccc(F)cc2F)n1	–
2	CCCC(=O)Nc1cc(C(=O)O)cc(-c2ccccc2-c2cc(Cl)ccc2OCc2ccccc2)c1	–
